Laboratory results published in PubChem BioAssay AID248 (DTP/NCI, 2004).
Several values for one entry are separate records, joined by “and”; a condition that tells them apart may be missing. Equal values may be shown once. Toxic doses and inconclusive results are not listed.

Tested on: L1210 leukemia ip in BDF1 mice, survival T/C
Assay: NCI In Vivo Anticancer Drug Screen. Data for tumor model L1210 Leukemia (intraperitoneal) in B6D2F1 (BDF1) mice
Settings: endpoint: mean survival time, higher = longer survival
Outline: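 Each compound was tested against a transplantable tumor grown in mice. The endpoint was survival, with treated animals benchmarked against vehicle controls as a simple ratio.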

O=NN(CCCl)C(=O)NC1CCCCC1 was tested, and the T/C (dose: 0.06 mg/kg/injection, schedule: Q03HX024 (ip), vehicle: saline) was 101 % of control, the T/C (dose: 0.06 mg/kg/injection, schedule: Q03HX024 (oral), vehicle: saline) was 98 % of control and the T/C (dose: 0.06 mg/kg/injection, schedule: Q03HX040 (oral), vehicle: saline) was 115 % of control. The T/C (dose: 0.13 mg/kg/injection, schedule: Q03HX024 (oral), vehicle: saline) was 108 % of control, the T/C (dose: 0.13 mg/kg/injection, schedule: Q03HX040 (oral), vehicle: saline) was 153 % of control and the T/C (dose: 0.16 mg/kg/injection, schedule: Q#B X003 (ip), vehicle: carboxymethylcellulose (CMC)) was 103 % of control. The T/C (dose: 0.33 mg/kg/injection, schedule: Q#B X003 (ip), vehicle: carboxymethylcellulose (CMC)) was 95 % of control, the T/C (dose: 0.39 mg/kg/injection, schedule: Q03HX040 (ip), vehicle: carboxymethylcellulose (CMC)) was 100 % of control and the T/C (dose: 0.5 mg/kg/injection, schedule: Q01DX005 (ip), vehicle: saline) was 101 % of control. For the same compound, the T/C (dose: 0.66 mg/kg/injection, schedule: Q#B X003 (ip), vehicle: carboxymethylcellulose (CMC)) was 97 % of control, the T/C (dose: 0.78 mg/kg/injection, schedule: Q03HX024 (ip), vehicle: carboxymethylcellulose (CMC)) was 106 % of control and the T/C (dose: 1.0 mg/kg/injection, schedule: Q01DX001 (ip), vehicle: saline) was 104 % of control. For the same compound, the T/C (dose: 1.0 mg/kg/injection, schedule: Q01DX001 (oral), vehicle: saline) was 100 % of control, the T/C (dose: 1.0 mg/kg/injection, schedule: Q01DX005 (ip), vehicle: saline) was 104 % of control and the T/C (dose: 1.0 mg/kg/injection, schedule: Q03HX040 (ip), vehicle: saline) was 100 % of control. For the same compound, the T/C (dose: 1.0 mg/kg/injection, schedule: Q## X001 (ip), vehicle: carboxymethylcellulose (CMC)) was 106 % of control, the T/C (dose: 1.33 mg/kg/injection, schedule: Q#B X003 (ip), vehicle: carboxymethylcellulose (CMC)) was 110 % of control and the T/C (dose: 1.56 mg/kg/injection, schedule: Q01DX009 (ip), vehicle: carboxymethylcellulose (CMC)) was 105 % of control. For the same compound, the T/C (dose: 1.56 mg/kg/injection, schedule: Q03HX024 (ip), vehicle: carboxymethylcellulose (CMC)) was 120 % of control, the T/C (dose: 1.56 mg/kg/injection, schedule: Q03HX040 (ip), vehicle: carboxymethylcellulose (CMC)) was 119 % of control and the T/C (dose: 2.0 mg/kg/injection, schedule: Q01DX Z (ip), vehicle: carboxymethylcellulose (CMC)) was 124 % of control. For the same compound, the T/C (dose: 2.0 mg/kg/injection, schedule: Q04DX004 (ip), vehicle: Klucel (hydroxypropylcellulose) (HPC)) was 94 % of control, the T/C (dose: 2.66 mg/kg/injection, schedule: Q#B X003 (ip), vehicle: carboxymethylcellulose (CMC)) was 121 % of control and the T/C (dose: 2.8 mg/kg/injection, schedule: Q01DX015 (ip), vehicle: carboxymethylcellulose (CMC)) was 112 % of control. The T/C (dose: 3.12 mg/kg/injection, schedule: Q01DX005 (ip), vehicle: carboxymethylcellulose (CMC)) was 113 % of control, the T/C (dose: 3.12 mg/kg/injection, schedule: Q01DX Z (ip), vehicle: carboxymethylcellulose (CMC)) was 172 % of control and the T/C (dose: 4.0 mg/kg/injection, schedule: Q01DX009 (oral), vehicle: saline) was 112 % of control. The T/C (dose: 4.0 mg/kg/injection, schedule: Q03HX003 (oral), vehicle: saline) was 111 % of control, the T/C (dose: 4.2 mg/kg/injection, schedule: Q## X015 (ip), vehicle: carboxymethylcellulose (CMC)) was 113 % of control and the T/C (dose: 4.4 mg/kg/injection, schedule: Q04DX004 (ip), vehicle: Klucel (hydroxypropylcellulose) (HPC)) was 113 % of control. The T/C (dose: 5.0 mg/kg/injection, schedule: Q## X032 (ip), vehicle: carboxymethylcellulose (CMC)) was 106 % of control and 110 % of control, the T/C (dose: 6.0 mg/kg/injection, schedule: Q02DX005 (ip), vehicle: carboxymethylcellulose (CMC)) was 154 % of control and the T/C (dose: 6.0 mg/kg/injection, schedule: Q02DX006 (ip), vehicle: carboxymethylcellulose (CMC)) was 158 % of control. The T/C (dose: 6.0 mg/kg/injection, schedule: Q02DX007 (ip), vehicle: carboxymethylcellulose (CMC)) was 163 % of control, the T/C (dose: 6.0 mg/kg/injection, schedule: Q## X008 (ip), vehicle: carboxymethylcellulose (CMC)) was 108 % of control and the T/C (dose: 6.25 mg/kg/injection, schedule: Q01DX001 (ip), vehicle: Klucel (hydroxypropylcellulose) (HPC)) was 116 % of control. The T/C (dose: 6.25 mg/kg/injection, schedule: Q01DX001 (ip), vehicle: carboxymethylcellulose (CMC)) was 109 % of control, the T/C (dose: 6.25 mg/kg/injection, schedule: Q01DX001 (oral), vehicle: carboxymethylcellulose (CMC)) was 122 % of control and the T/C (dose: 6.25 mg/kg/injection, schedule: Q01DX005 (ip), vehicle: carboxymethylcellulose (CMC)) was 157 % of control. The T/C (dose: 6.25 mg/kg/injection, schedule: Q07DX Z (ip), vehicle: carboxymethylcellulose (CMC)) was 112 % of control, the T/C (dose: 6.7 mg/kg/injection, schedule: Q04DX004 (ip), vehicle: Klucel (hydroxypropylcellulose) (HPC)) was 159 % of control and the T/C (dose: 7.2 mg/kg/injection, schedule: Q## X032 (ip), vehicle: carboxymethylcellulose (CMC)) was 110 % of control. The T/C (dose: 7.5 mg/kg/injection, schedule: Q01DX001 (iv), vehicle: Klucel (hydroxypropylcellulose) (HPC)) was 114 % of control, the T/C (dose: 8.0 mg/kg/injection, schedule: Q03HX003 (oral), vehicle: saline) was 120 % of control and the T/C (dose: 8.0 mg/kg/injection, schedule: Q## X032 (ip), vehicle: carboxymethylcellulose (CMC)) was 113 % of control.
